Here are results for three molecules from patent US20230286982A1, “PROTEASOME ENHANCERS AND USES THEREOF” (Board of Trustees of Michigan State University, priority 2020, published 2023).

SMILES strings stand for the structures. “Also recorded” adds a separate entry of the source.

In assay [1] the target is T1, purified human 20S proteasome (Homo sapiens, UniProt P25787+P25789).
T1 construct: purchased Boston Biochem, Inc. (Cambridge, Mass.)
Nature of the assay: In vitro purified α-synuclein oligomer degradation assay (western blot). The format is biochemical. To be noted: 24 hours incubation with 20S proteasome. The protocol: In vitro purified α-synuclein oligomer degradation assay (western blot). Digestion of α-synuclein oligomer mixture was carried out in a 50 μL reaction volume made of 50 mM Tris at pH 7.8; 0.33 μM α-synuclein oligomer mixture and 6.7 nM purified human 20S proteasome. Briefly, 20S proteasome was diluted to 7.58 nM in the reaction buffer. Fluspirilene or vehicle (1 μL of 50×stock or DMSO) were added to 44 μL of 7.58 nM 20S and incubated at 37° C. for 20 min. The substrate (5 μL of 3.3 μM synuclein oligomer mixture) was then added to the reaction mixture and incubated at 37° C. for 24 hours. The reactions were then quenched with concentrated SDS loading buffer. Samples were resolved on a 4-20% Tris-glycine SDS-PAGE and immunoblotted with mouse monoclonal anti α-synuclein IgG (1:2000) and anti-mouse HRP-linked IgG (1:2000). Blots were developed with ECL western reagent and imaged with an Azure Biosystems 3000 imager.
(In general: A western blot detects proteins with antibodies after separation by electrophoresis.)

Assay [2] concerns A53T α-synuclein in transiently transfected HEK-293T cells. The assay is described as follows: A53T α-synuclein digestion in HEK-293T cells. It is filed as cell-based, human. The following applies: for accumulation of A53T α-synuclein protein: 10 or 30 μM, 8 hours, with cycloheximide 100 μg/mL, concentration dependent. The protocol: Cell culture. Human embryonic kidney cells (HEK293T) were maintained in Dulbecco's modified Eagle's medium (DMEM) supplemented with 10% fetal bovine serum and 100 units/mL penicillin/streptomycin, at 37° C. with 5% CO2.
Transient transfection of A53T α-synuclein plasmid Into HEK-293T cells. Cells were grown according using the methods stated above to ˜50-70% confluency. At this point plasmid prepared with Xfect transfection agent (prepared following manufacturers protocol) was added to the HEK-293 cells and incubated for 4 hours. The media was then replaced with fresh culture media and the cells were returned to the incubator for 24 hours prior to treatment.
A53T α-synuclein digestion in HEK-293T cells. HEK-293T cells were transfected as described above and incubated for 24 hours. The cells were then treated with 100 μg/mL of cycloheximide, in combination with either vehicle (DMSO), fluspirilene (10 or 30 μM), N-acylated fluspirilene (10 or 30 μM), bortezomib (100 nM), or a combination thereof for 8 hours. The cells were then lysed using RIPA buffer and the manufacturers protocol. A BCA assay was performed to quantify protein levels and the lysates were normalized to desired concentrations prior to electrophoresis and western blot analysis, performed as described previously.

Assay [3] deals with T2, human constitutive 20S proteasome impaired by α-synuclein oligomer mixture (Homo sapiens, UniProt P25787+P25789).
T2 construct: purchased Boston Biochem, Inc. (Cambridge, Mass.)
The assay is described as follows: IDP oligomer inhibition in fluorogenic peptide degradation assay (α-synuclein oligomers). It is filed as biochemical. The following applies: 1-10 μM, concentration dependent; CT-L substrate; 500 nM α-synuclein oligomers. On the procedure: IDP oligomer Inhibition in fluorogenic peptide degradation assay. Assays were carried out in a 100 μL reaction volume. Different concentrations (1-10 μM) of test compounds were added to a black flat/clear bottom 96-well plate containing 1 nM of human constitutive 20S proteasome, in 50 mM Tris-HCl at pH 7.8 and allowed to incubate for 15 min at 37° C. Then, 1 μL of α-synuclein or amyloid beta oligomer mixture of was added to each sample to a final concentration of 500 nM for α-synuclein and 2.5 μM for amyloid beta. This mixture was then allowed to incubate again for 15 min at 37° C. Next, 10 μL of CT-L fluorogenic substrate was added to a final concentration of 20 μM. The enzymatic activity was measured at 37° C. on a SpectraMax M5e spectrometer by measuring the change in fluorescence unit per minute for 1 hour at 380-460 nm. The fluorescence units for the vehicle control were set at a 100%, and the ratio of drug-treated or just oligomer-treated samples to the vehicle control was used to calculate the relative enzymatic activity.

Assay [4] concerns the target T3, human constitutive 20S proteasome (Homo sapiens, UniProt P25787+P25789).
T3 construct: purchased Boston Biochem, Inc. (Cambridge, Mass.)
Nature of the assay: Fluorogenic peptide degradation 20S proteasome activity assay. The format is biochemical. To be noted: for 20S proteasome activity (in words): 0-80 μM; for AC200 (concentration achieving a doubling of 20S activity): combination of the three fluorogenic substrates (CT-L, T-L, Casp-L). The protocol:
Fluorogenic peptide degradation 20S proteasome activity assay. Activity assays were carried out in a 100 μL reaction volume. Different concentrations (1-80 μM) of test compounds were added to a black flat/clear bottom 96-well plate containing 1 nM of human constitutive 20S proteasome, in 50 mM Tris-HCl at pH 7.8, 100 mM NaCl and allowed to incubate for 15 min at 37° C. Fluorogenic substrates were then added and the enzymatic activity measured at 37° C. on a SpectraMax M5e spectrometer by measuring the change in fluorescence unit per minute for 1 hour at 380-460 nm. The fluorescence units for the vehicle control were set at a 100%, and the ratio of drug-treated sample set to that of vehicle control was used to calculate the fold change in enzymatic activity. The fluorogenic substrates used were one of the following: Suc-LLVY-AMC (CT-L activity, 20 μM), Z-LLE-AMC (Casp-L activity, 20 μM), Boc-LRR-AMC (T-L activity, 40 μM) or a combination of the three substrates each at 6.67 μM.

Assay [5] addresses T4, human constitutive 20S proteasome impaired by amyloid beta oligomer mixture (Homo sapiens, UniProt P25787+P25789).
T4 construct: purchased Boston Biochem, Inc. (Cambridge, Mass.)
The assay is described as follows: IDP oligomer inhibition in fluorogenic peptide degradation assay (amyloid beta oligomers). It is filed as biochemical. To be noted: 1-10 μM, concentration dependent; CT-L substrate; 2.5 μM amyloid beta. The protocol: Amylold beta aggregate preparation. Synthetic amyloid beta was purchased from Eurogentec. To remove preexisting aggregates, synthetic amyloid beta peptide was dissolved in 100% hexafluoroisopropanol (HFIP) and incubated at 37° C. for 2 h. The HFIP was removed and the remaining peptide films were stored at −80° C. until use. Aggregates were prepared by resuspending amyloid beta films with DMSO (50 μL per 1 mg of peptide), followed by addition of ultrapure H2O (800 μL) and rapid addition of 2 M Tris-base (10 μL) at pH 7.6. The solution was then vortexed for 5 seconds and allowed to incubate at room temperature for 5 minutes. The Amyloid beta mixture was then diluted to the desired concentration and used immediately.
IDP oligomer Inhibition in fluorogenic peptide degradation assay. Assays were carried out in a 100 μL reaction volume. […] The enzymatic activity was measured at 37° C. on a SpectraMax M5e spectrometer by measuring the change in fluorescence unit per minute for 1 hour at 380-460 nm. The fluorescence units for the vehicle control were set at a 100%, and the ratio of drug-treated or just oligomer-treated samples to the vehicle control was used to calculate the relative enzymatic activity.

The target of the next assay is dopamine D2 receptor (Homo sapiens, UniProt P14416). The following applies: cited from earlier work.
dopamine D2 receptor, sequence (P14416 whole entry, species assumed): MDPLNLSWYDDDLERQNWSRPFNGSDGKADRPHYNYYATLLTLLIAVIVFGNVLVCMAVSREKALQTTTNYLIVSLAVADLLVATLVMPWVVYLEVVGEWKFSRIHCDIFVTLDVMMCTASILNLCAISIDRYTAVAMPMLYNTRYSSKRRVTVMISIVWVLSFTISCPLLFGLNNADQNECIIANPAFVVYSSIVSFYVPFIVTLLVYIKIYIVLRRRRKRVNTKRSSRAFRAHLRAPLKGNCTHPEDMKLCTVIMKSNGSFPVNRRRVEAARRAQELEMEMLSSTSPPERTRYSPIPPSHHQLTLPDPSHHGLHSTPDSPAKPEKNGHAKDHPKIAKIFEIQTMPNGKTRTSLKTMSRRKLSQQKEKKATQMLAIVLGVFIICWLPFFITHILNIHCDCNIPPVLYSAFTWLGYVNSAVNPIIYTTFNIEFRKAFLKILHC
In a further assay the target is 26S proteasome (Homo sapiens, UniProt P25787+P25789). The assay is described as follows: Proteolysis of fluorogenic peptide substrates by purified 26S proteasome. The format is biochemical. To be noted: 0-80 μM. The protocol: FIG. 1A is a plot showing the rate of proteolysis of fluorogenic peptide substrates by purified 20S and 26S proteasome in the presence of a concentration response (0-80 μM) of fluspirilene. […] Error bars denote standard deviation.
The small molecule antipsychotic drug fluspirilene was identified as a promising new scaffold for the development of 20S activators due to its strong enhancement of 20S proteolysis. To assess fluspirilene's 20S proteasome activity, a series of assays were performed using each of three fluorogenic peptide substrates. These substrates were a chymotryptic-like (CT-L), a trypsin-like (T-L) and a caspase-like (Casp-L) substrate, one for each of the catalytic sites of the proteasome. It has been shown that the proteasome's active sites allosterically regulate each other in the presence of their individual substrates. Therefore, a combination of the three probes to represent the overall activity of a 20S activator more accurately in a system in which all catalytic sites are interacting.

[6] abbreviates: combination of the three catalytic site substrates.

Regarding `O=C(CCC(c1ccc(F)cc1)c1ccc(F)cc1)N1CCC2(CC1)C(=O)NCN2c1ccccc1` [Compound 16], in assay [1], the “remaining α-syn oligomers relative to vehicle control” value is “reduction in overall α-syn oligomers”. The “accumulation of A53T α-synuclein protein” value in assay [2] was “effectively reduced the accumulation”. Also, in assay [2] (in combination with bortezomib (100 nM)), the “effect on A53T α-synuclein when proteasome activity is blocked” value is “abrogated”. Also, the “prevention of 20S impairment by α-syn oligomers” value in assay [3] is recorded as “prevented 20S impairment”. In assay [4] (setting [6]), the maximum fold enhancement was > 2000% and the “20S proteasome activity (in words)” value is on record as “promising; also recorded: excellent activity”. Also, the “AC200 (concentration achieving a doubling of 20S activity)” value in assay [4] was determined as 1.9 µM. Also, the “max fold increases, increase over vehicle” value in assay [4] (for each substrate/combination) is given as > 1500%. Moreover, in assay [4] (individual CT-L fluorescent peptide probe), the “activation of the CT-L site relative to fluspirilene” value is recorded as “reduced activation”. In assay [4] (individual CT-L substrate (Suc-LLVY-AMC)), the “AC200 at the CT-L site” value was determined as 4.7 µM. In addition, the “AC200 at the Casp-L site” value in assay [4] (individual Casp-L substrate (Z-LLE-AMC)) came to 4.1 µM. In addition, in assay [4] (individual T-L fluorescent peptide probe), the “activation of the T-L site relative to fluspirilene” value is “better activation”. Besides, the “prevention of 20S impairment by amyloid beta oligomers” value in assay [5] is on record as “prevented 20S impairment”.
For `O=C1NCN(c2ccccc2)C12CCN(CCC=C(c1ccc(F)cc1)c1ccc(F)cc1)CC2` [Compound 11], the “20S proteasome activity (in words)” value in assay [4] (setting [6]) is given as “lessened activity; also recorded: moderate activity”.
Take `O=C1NCN(c2ccccc2)C12CCN(CCCC(c1ccc(F)cc1)c1ccc(F)cc1)CC2` [Fluspirilene, fluspirilene, reference compound]: the “dopamine D2 receptor antagonism” value on dopamine D2 receptor is “potent”. For the same molecule, the “remaining α-syn oligomers relative to vehicle control” value in assay [1] is listed as “reduction in overall α-syn oligomers”. The “accumulation of A53T α-synuclein protein” value in assay [2] is recorded as “effectively reduced the accumulation”. Further, on 26S proteasome, the “enhancement of the proteolytic activity of the 26S proteasome” value is “did not enhance”. Further, the “prevention of 20S impairment by α-syn oligomers” value in assay [3] is reported as “prevented 20S impairment”. The “activation of the catalytic sites of the 20S proteasome” value in assay [4] (CT-L, T-L and Casp-L substrates) is on record as “activates all three catalytic sites”. Besides, in assay [4] (combination of probes, over vehicle control), the maximum fold enhancement is given as ~10 fold. For the same molecule, in assay [4] (setting [6]), the “20S proteasome activity (in words)” value is given as “promising”. In addition, the “AC200 (concentration achieving a doubling of 20S activity)” value in assay [4] was 2.2 µM. Moreover, in assay [5], the “prevention of 20S impairment by amyloid beta oligomers” value is reported as “prevented 20S impairment”.
